Patent US20130047297A1, “POLYNUCLEOTIDE MOLECULES FOR GENE REGULATION IN PLANTS” (priority 2010, published 2013)
d = 2'-deoxy (DNA); r = 2'-OH (RNA)

Assays:
Type in all cases: in vivo
[1] = system: glyphosate-resistant Palmer amaranth plants; assay: Salts, EDTA, glycerin as additives to polynucleotide spray solutions (Example 35, Tables 26-28); details: for enhancing the efficacy of the polynucleotides and potentiating the herbicidal activity of glyphosate: additive in the spray solution
[2] = system: glyphosate-resistant Palmer amaranth containing 16 copies of EPSPS; assay: Glyphosate counter-ions with EPSPS polynucleotides (Example 35, Table 29); details: for Palmer control (%) / Palmer height (cm): 1682 g acid equivalent per hectare of the glyphosate salt, with or without EPSPS polynucleotides (IDT [1]-[4]) in 0.5% Silwet L-77, 2% ammonium sulfate, 16 copies of EPSPS, 21 days after treatment; for herbicidal activity compared to the potassium salt: 1682 g acid equivalent per hectare of glyphosate salt with IDT [1]-[4], 21 days after glyphosate treatment
Text: FIG. 38 depicts the effect of varying glyphosate counter-ions on herbicidal activity (presented as percent of weed control/kill, and as plant height) of topically applied polynucleotides (RNA) on glyphosate-resistant Palmer amaranth plants. A mixture of EPSPS polynucleotides (IDT [1] (SEQ ID NO:83-84), IDT [2] (SEQ ID NO:85-86), IDT [3] (SEQ ID NO:87-88), and IDT [4] (SEQ ID NO:89-90)) in 0.5% Silwet L-77, 2% ammonium sulfate in 10 millimolar sodium phosphate buffer, pH 6.8 with 0.2% Roundup® WeatherMax® carrier (MON56151 tallowamine surfactant blend of tallowamine (16-18C) and cocoamine (12-14C) in the ratio of 55:45) and 1682 g acid equivalent per hectare of one of the glyphosate salts; K+ glyphosate, isopropylammonium+ glyphosate or monoethanolammonium+ glyphosate at 215 liters/acre by Milli spray on 3 replicates of 4-6 inch glyphosate-resistant Palmer amaranth containing 16 copies of EPSPS. Plant height was scored at 21 days after glyphos ate treatment.

[3] = system: Nicotiana benthamiana phytoene desaturase; assay: Topical oligonucleotides/polynucleotides on tobacco, PDS bleaching and chlorophyll (Example 10); details: for bleaching of apical leaves (FIG. 14): topical treatment; for Chlorophyll (day 12) / Chlorophyll (day 7): 6 spots on the apical area; for Chlorophyll (day 12): buffer control 38.4; for Chlorophyll (day 7): lower values indicate suppression of phytoene desaturase, buffer control 31.2; for Bleaching (day 5): 25 microM each; for systematically regulating (suppressing) the target gene phytoene desaturase: Table 4 treatments; for bleaching of apical leaves (FIG. 15): another assay
Procedure: The following procedure was used for all assays described in this example. Four-week old Nicotiana benthamiana plants were used in all assays. Plants were treated with 0.1% Silwet L-77 solution freshly made with ddH2O. Two fully expanded leaves per plant (one cotyledon, one true leaf) were dipped into the Silwet L-77 solution for a few seconds, and allowed to dry for 15-30 minutes before application of the polynucleotide composition. Final concentration for each oligonucleotide or polynucleotide was 25 microM (in 0.01% Silwet L-77, 5 mM sodium phosphate buffer, pH 6.8) unless otherwise stated. 20 microliters of the solution was applied to the top surface of each of the two pre-treated leaves to provide a total of 40 microliters (1 nmol oligonucleotide or polynucleotide) for each plant. Leaf bleaching was observed 3 days post treatment.
FIG. 13 illustrates phenotypes observed at day 12 after treatment in another assay of the effect from twelve combinations of polynucleotides or oligonucleotides (see Table 4). Table 4 also lists observations of visible bleaching of the plants at day 5 after treatment and the results of chlorophyll measurements taken at days 7 and 12 after treatment. Chlorophyll measurements are an indication of suppression of the target gene phytoene desaturase, and measurements were taken at 6 spots on the apical area, focussing on visibly bleached leaves or (in plants without visible bleaching) on leaves in equivalent locations on the plants; lower chlorophyll measurement values indicate suppression of phytoene desaturase.

Palmer amaranth = assay: Combinations of EPSPS, TIF and ddATPase polynucleotides then glyphosate (Example 26, Tables 12 and 13); details: protocol 3; 29 g/acre; copy number 16; 13 DAT
Procedure: Solutions of the polynucleotides were prepared and applied to the leaves of Palmer amaranth using the protocols described in Table 12.

[4] = 2% salt as additive to 1% Silwet L-77 spray solution of topically applied polynucleotides (RNA), glyphosate
[5] = Table 26: additive to 1% Silwet L-77 spray solution of polynucleotides (RNA), glyphosate

Cl.N [ammonium chloride]
Palmer control (%) [1, 4]: 52% | Palmer height (cm) [1, 4]: 10.3 cm | enhancing the efficacy of the polynucleotides and potentiating the herbicidal activity of glyphosate [1]: act similarly to ammonium sulfate

O=C(O)CNCP(=O)([O-])O.[K+] [K + glyphosate]
Palmer control (%) [2]: 23% | Palmer height (cm) [2]: 12.3 cm

NCCO.O=C(O)CNCP(=O)(O)O [MEA + glyphosate]
Palmer control (%) [2]: 9% | Palmer height (cm) [2]: 14.5 cm

PDS 33-mer anti-sense ssDNA: SEQ ID NO:35 (antisense CATCTCCTTTAATTGTACTGCCATTATTCAGTA; DNA, backbone not given here)
bleaching of apical leaves (FIG. 14) [3]: Strong bleaching

Oligos 1 and 2 without T7 promoter: SEQ ID NOs 18, 19 (chain 1 GCAAGAGATGTCCTAGGTGGG; chain 2 ACAGATTTCTTCAGGAGAAACATGG; DNA, backbone not given here)
Chlorophyll (day 12) [3]: 41.1 | Chlorophyll (day 7) [3]: 32.0 | Bleaching (day 5) ([3]; 40 microliters per plant): not yet | systematically regulating (suppressing) the target gene phytoene desaturase [3]: did not suppress

CC(C)N.O=C(O)CNCP(=O)(O)O [isopropylammonium+ glyphosate, reference compound]
herbicidal activity compared to the potassium salt [2]: better herbicidal activity

IDT [2]: Palmer/EPSPS dsRNA, SEQ ID NO. 85, 86 (chain 1 AGUUGGUGGGCAAUCAUCAAUUG; chain 2 AACAAUUGAUGAUUGCCCACCAACUCU; chain 1: RNA, 3' dTdT, backbone not given here; chain 2: RNA, backbone not given here)
Results: % control (Palmer amaranth): 0% control

IDT [1]: Palmer/EPSPS dsRNA, SEQ ID NO. 83, 84 (chain 1 CUACCAUCAACAAUGGUGUCCAUAC; chain 2 GUAUGGACACCAUUGUUGAUGGUAGUA; chain 1: sugars from the 5' end r23 d2, backbone not given here; chain 2: RNA, backbone not given here)
Results: % stunted (Palmer amaranth): 51% stunted

O=S(=O)([O-])[O-].[Na+].[Na+] [sodium sulfate]
Palmer control (%) ([1]; in vivo): 7% | Palmer height (cm) ([1]; in vivo): 17.0 cm

OCC(O)CO [Glycerin, glycerin]
enhancing the efficacy of the polynucleotides and potentiating the herbicidal activity of glyphosate [1]: enhance the efficacy of the polynucleotides

NCCO.O=C(O)CNCP(=O)(O)O [monoethanolammonium+ glyphosate, reference compound]
herbicidal activity compared to the potassium salt [2]: better herbicidal activity

CCCC[P+](CCCC)(CCCC)CCCC.[Br-] [tetrabutylphosphonium bromide]
enhancing the efficacy of the polynucleotides and potentiating the herbicidal activity of glyphosate [1]: act similarly to ammonium sulfate

CC(C)N.O=C(O)CNCP(=O)(O)O [IPA + glyphosate]
Palmer control (%) [2]: 9% | Palmer height (cm) [2]: 14.5 cm

[Cl-].[Na+] [sodium chloride]
Palmer control (%) [1, 4]: 15% | Palmer height (cm) [1, 4]: 15.0 cm

O=C(O)CN(CCN(CC(=O)O)CC(=O)O)CC(=O)O [EDTA, ethylenediaminetetraacetic acid]
Palmer control (%) ([1]; Table 26: additive (2% ammonium sulfate; 0.004% EDTA) to 1% Silwet L-77 spray solution of polynucleotides (RNA), glyphosate): 45% | Palmer height (cm) [1, 5]: 1.0 cm | enhancing the efficacy of the polynucleotides and potentiating the herbicidal activity of glyphosate [1]: act similarly to 2% ammonium sulfate

PDS 15-mer anti-sense ssDNA: SEQ ID NO:32 (antisense CATCTCCTTTAATTG; DNA, backbone not given here)
bleaching of apical leaves (FIG. 14) [3]: Little or no visible bleaching

PDS 18-mer anti-sense ssDNA: SEQ ID NO:33 (antisense CATCTCCTTTAATTGTAC; DNA, backbone not given here)
bleaching of apical leaves (FIG. 14) [3]: Little or no visible bleaching

Oligo 3 without T7 promoter: SEQ ID NOs 22, 23; PDS anti-sense 22-mer oligonucleotides without a T7 promoter (antisense 1 CATCTCCTTTAATTGTACTGCC; antisense 2 TTTAATTGTACTGCCATTATTC; listed as DNA, chemistry not given here)
Chlorophyll (day 12) [3]: 3.2 | Chlorophyll (day 7) [3]: 11.3 | Bleaching (day 5) ([3]; 40 microliters per plant): strong | systematically regulating (suppressing) the target gene phytoene desaturase [3]: effective | bleaching of apical leaves (FIG. 15) [3]: strong bleaching | bleaching of apical leaves (FIG. 14) [3]: Strong bleaching

N.N.O=S(=O)(O)O [ammonium sulfate]
Palmer control (%) [1, 4]: 54% | Palmer height (cm) [1, 4]: 9.3 cm | Palmer height (cm) [1, 5]: 1.8 cm | Palmer control (%) ([1]; in vivo): 43%

PDS 21-mer sense ssDNA: SEQ ID NO:36 (sense GCAGTACAATTAAAGGAGATG; DNA, backbone not given here)
bleaching of apical leaves (FIG. 15) [3]: Little or no visible bleaching

C[N+](C)(C)C.[Cl-] [tetramethylammonium chloride]
Palmer control (%) ([1]; in vivo): 19% | Palmer height (cm) ([1]; in vivo): 15.0 cm

CC[N+](CC)(CC)CC.[Cl-] [tetraethylammonium chloride]
Palmer control (%) [1, 4]: 27% | Palmer height (cm) [1, 4]: 12.0 cm

B1: 200-mer dsRNA polynucleotide: dsRNA corresponding to nucleotides 914-1113 of SEQ ID NO:2 (nucleic acid, listed as Nicotiana benthamiana)
sense: ACAGATTTCTTCAGGAGAAACATGGTTCAAAAATGGCCTTTTTAGATGGTAACCCTCCTGAGAGACTTTGCATGCCGATTGTGGAACATATTGAGTCAAAAGGTGGCCAAGTCAGACTAAACTCACGAATAAAAAAGATCGAGCTGAATGAGGATGGAAGTGTCAAATGTTTTATACTGAATAATGGCAGTACAATTAAA
modifications: complementary strand
Chlorophyll (day 12) [3]: 4.0 | Chlorophyll (day 7) [3]: 11.3 | Bleaching (day 5) ([3]; 40 microliters per plant): strong | bleaching of apical leaves (FIG. 12A) ([3]; 200-mer dsRNA at 0.6 microM, oligonucleotides 25 microM each, 40 microliters per plant): Bleaching of apical leaves was observed | systematically regulating (suppressing) the target gene phytoene desaturase [3]: effective

B2: Oligos 1, 2, and 3 w/o T7 promoter and oligos 4, 5, & 6: SEQ ID NOs 18, 19, 22, 23, 24, 25, 26 (nucleic acid)
chain 1: GCAAGAGATGTCCTAGGTGGG
chain 2: ACAGATTTCTTCAGGAGAAACATGG
chain 3: CATCTCCTTTAATTGTACTGCC
chain 4: TTTAATTGTACTGCCATTATTC
chain 5: CACTTCCATCCTCATTCAGCTCGAT
chain 6: ACACCTCATCTGTCACCCTATCAG
chain 7: CAGTCTCGTACCAATCTCCATCAT
modifications: DNA, backbone not given here
Chlorophyll (day 12) [3]: 34.4 | Chlorophyll (day 7) [3]: 30.2 | Bleaching (day 5) ([3]; 40 microliters per plant): not yet

B3: PDS 700-mer dsRNA: dsRNA designed from nucleotides 421-1120 of SEQ ID NO:2 (nucleic acid, listed as Nicotiana benthamiana)
DNA: GCAAGAGATGTCCTAGGTGGGAAGGTAGCTGCATGGAAAGATGATGATGGAGATTGGTACGAGACTGGGTTGCACATATTCTTTGGGGCTTACCCAAATATGCAGAACCTGTTTGGAGAACTAGGGATTGATGATCGGTTGCAGTGGAAGGAACATTCAATGATATTTGCGATGCCTAACAAGCCAGGGGAGTTCAGCCGCTTTGATTTTCCTGAAGCTCTTCCTGCGCCATTAAATGGAATTTTGGCCATACTAAAGAACAACGAAATGCTTACGTGGCCCGAGAAAGTCAAATTTGCTATTGGACTCTTGCCAGCAATGCTTGGAGGGCAATCTTATGTTGAAGCTCAAGACGGTTTAAGTGTTAAGGACTGGATGAGAAAGCAAGGTGTGCCTGATAGGGTGACAGATGAGGTGTTCATTGCCATGTCAAAGGCACTTAACTTCATAAACCCTGACGAGCTTTCGATGCAGTGCATTTTGATTGCTTTGAACAGATTTCTTCAGGAGAAACATGGTTCAAAAATGGCCTTTTTAGATGGTAACCCTCCTGAGAGACTTTGCATGCCGATTGTGGAACATATTGAGTCAAAAGGTGGCCAAGTCAGACTAAACTCACGAATAAAAAAGATCGAGCTGAATGAGGATGGAAGTGTCAAATGTTTTATACTGAATAATGGCAGTACAATTAAAGGAGATG
modifications: dsRNA of this region
bleaching of apical leaves (FIG. 14) [3]: Strong bleaching
